In US20220324835A1 (Nurix Therapeutics, Inc., priority 2018, published 2022):

Key:
Format in all cases: cell-based
anergic human T-cells = test: Anergic T-cell activation assessed by IFNγ secretion (ionomycin-induced anergy); conditions: anergic T-cells re-challenged with anti-CD3 and anti-CD28 for 24 hours, read-out: IFNγ Fold change from baseline
Source text: Peripheral blood mononuclear cells (PBMC) were obtained either: 1) by using Ficoll-Paque™ (GE Healthcare) for separation of peripheral blood hematopoietic cells from buffy coats of healthy human donors; or 2) directly from LeukoPak donations. Total human primary T-cells were isolated from the PBMCs utilizing negative selection with commercial kits following the manufacturer's protocol (Miltenyi Catalog #130-096-535 (i.e., cocktail of antibodies against surface markers CD14, CD15, CD16, CD19, CD34, CD36, CD56, CD123 and CD235a were incubated with the PBMCs before passing the samples by magnetic beads for removal of cells expressing those surface markers) or StemCells Catalog #17951) to yield >95% CD3+ cells assessed by flow cytometry. The cells were activated with immobilized anti-CD3 antibody (OKT3) and soluble anti-CD28 antibody (28.2) for two days at which time they are washed and allowed to rest for three days in the absence of stimulation. They were then treated with ionomycin (Sigma) for 18-24 hours to induce anergy. Following two washes to remove the ionomycin from the samples, Cbl-b inhibitor compounds were added to the cells at the indicated concentrations (e.g. 10, 1.11 and 0.37 μM) and incubated for 1 hour. The cells were then re-challenged with anti-CD3 antibody and anti-CD28 antibody for 24 hours at which point cell free supernatants were collected and assessed for cytokines (e.g., IFNγ) by ELISA (R&D Systems or Peprotech) or Luminex multiplex kits (Procarta Life Technologies) following manufacturer's protocols.
Cbl-b inhibitors were tested to determine their ability to induce or enhance secretion of cytokines from anergic T-cells (e.g. IFNγ), which is indicative of decreased T-cell tolerance.
Readouts were reported as fold change over baseline. Baseline for this study was the measurement obtained from anergic human T-cells stimulated with immobilized anti-CD3 and soluble anti-CD28, wherein the T-cells were not incubated with a Cbl-b inhibitor (Table 7). For IFNγ changes greater than 2.5-fold over baseline were considered a positive response (Table 7). Compounds were ranked into bins according to their readout as follows for IFNγ: A indicates ≤2.50, B indicates 2.51-4.00 and C indicates >4.01.

[1] = system: primary human total T-cells; test: T-cell activation assessed by CD69 expression
Source text: (§1) Peripheral blood mononuclear cells (PBMC) were obtained either: 1) by using Ficoll-Paque™ (GE Healthcare) for separation of peripheral blood hematopoietic cells from buffy coats of healthy human donors; or 2) directly from FeukoPak donations. Total human primary T-cells were isolated from the PMBCs utilizing negative selection with commercial kits following the manufacturer's protocol (Miltenyi Catalog #130-096-535 (i.e., cocktail of antibodies against surface markers CD14, CD15, CD16, CD19, CD34, CD36, CD56, CD123 and CD235a are incubated with the PBMCs before passing the samples by magnetic beads for removal of cells expressing those surface markers) or StemCells Catalog #17951) to yield >95% CD3+ cells as assessed by flow cytometry. For measurement of cell proliferation, cells were labeled with Cell Trace Violet (Invitrogen) following manufacturer's protocol prior to activation by stimulation with anti-CD3 antibody alone or in combination with anti-CD28 antibody. The Cbl-b inhibitor was added to 1×10^5 cells per well at multiple concentrations (e.g., 10 μM, 1.11 μM, or 0.123 μM) with a final DMSO concentration of <0.1%. The plate was incubated for one hour at 37° C. in 5% CO2. Following incubation with the Cbl-b inhibitor, primary human total T-cells were stimulated with either plate bound anti-CD3 antibody (OKT3) alone or plate bound anti-CD3 antibody (OKT3) with soluble anti-CD28 antibody (28.2) (Life Technologies). To prepare plates with plate bound anti-CD3 antibody (OKT3), 96-well round bottom tissue culture plates were coated with 100 μl of anti-CD3 antibody (OKT3) at 10 μg/mL for 4 hours at 37° C. 5% CO2 in phosphate buffered saline (PBS). The plates were washed with PBS prior to adding the cells with or without soluble anti-CD28 antibody (28.2) to each well at a final concentration of 5 μg/mL. Cells were stimulated for 48 hours prior to harvesting the cell free supernatant and staining the cell population for surface marker assessment by flow cytometry. Supernatants were analyzed for cytokine secretion (e.g., GM-CSF, IFNγ and TNFα) by ELISA (R&D Systems, Peprotech or Life Technologies) or Luminex multiplex kits (Procarta Life Technologies) following manufacturer's protocol. Cells were stained with anti-CD69 (BD Biosciences) to assess levels of surface markers of activation. Proliferation was measured by flow cytometry and data was analyzed with FlowJo v7.6.5 or v10. Readouts were reported as fold change over baseline. In some embodiments, baseline was the measurement obtained from total human T-cells stimulated with anti-CD3 antibody alone, wherein the cells were not incubated with a Cbl-b inhibitor. In some embodiments, baseline was the measurement obtained from total human T-cells stimulated with anti-CD3 antibody and anti-CD28 antibody, where the cells were not incubated with a Cbl-b inhibitor.
(§2) Cbl-b inhibitors were tested to determine their ability to induce or enhance secretion of cytokines from T-cells (e.g., GM-CSF, IFNγ and TNFα) and/or surface expression of cell surface markers on T-cells (e.g., CD69) that is indicative of T-cell activation. Cbl-b inhibitors were also tested to determine their ability to induce or enhance T-cell proliferation. Cbl-b inhibitors were tested for their effects on T-cell activation in the presence of costimulation and where conditions were suboptimal for priming.
(§3) Readouts for T-cell activation were reported as fold change over baseline. Baseline for this study was the measurement obtained from total human T-cells stimulated with anti-CD3 antibody alone or anti-CD3 antibody in combination with soluble anti-CD28 antibody, where the cells were not incubated with a Cbl-b inhibitor. For T-cells stimulated with anti-CD3/anti-CD28 or with anti-CD3 alone changes greater than 1,2-fold over baseline for % positive CD69 staining and greater than 2-fold over baseline for % total proliferating cells were considered a significant and positive response (Table 4a). […]

[2] = system: primary human total T-cells; test: T-cell activation assessed by cell proliferation (Cell Trace Violet)
Source text: as §1, §2, §3

[3] = CD3/CD28 stimulation, CD4 T-cells, read-out: % CD69+ (CD4)
[4] = CD3/CD28 stimulation, CD8 T-cells, read-out: % CD69+ (CD8)
[5] = CD3 alone stimulation, CD4 T-cells, read-out: % CD69+ (CD4)
[6] = CD3 alone stimulation, CD8 T-cells, read-out: % CD69+ (CD8)
[7] = CD3/CD28 stimulation, CD4 T-cells, read-out: % CP (cell proliferation) (CD4)
[8] = CD3/CD28 stimulation, CD8 T-cells, read-out: % CP (cell proliferation) (CD8)
[9] = CD3 alone stimulation, CD8 T-cells, read-out: % CP (cell proliferation) (CD8)

| Compound | fold induction at 0.37 µM (anergic human T-cells) | fold induction at 1.11 µM (anergic human T-cells) | fold induction at 10 µM (anergic human T-cells) | fold induction at 1.11 µM [1, 3] | fold induction at 10 µM [1, 3] | fold induction at 1.11 µM [1, 4] | fold induction at 10 µM [1, 4] | fold induction at 1.11 µM [1, 5] | fold induction at 10 µM [1, 5] | fold induction at 1.11 µM [1, 6] | fold induction at 10 µM [1, 6] | fold induction at 1.11 µM [2, 7] | fold induction at 10 µM [2, 7] | fold induction at 1.11 µM [2, 8] | fold induction at 10 µM [2, 8] | fold induction at 1.11 µM [2, 9] | fold induction at 10 µM [2, 9] |
| --- | --- | --- | --- | --- | --- | --- | --- | --- | --- | --- | --- | --- | --- | --- | --- | --- | --- |
| Cc1cc(C(=O)Nc2cccc([C@@H](C)Cc3nncn3C)c2)nc(C2CC2)n1 [Compound 325, (S)-2-Cyclopropyl-6-methyl-N-(3-(1-(4-methyl-4H-1,2,4-triazol-3-yl)propan-2-yl)phenyl)pyrimidine-4-carboxamide] | ≤ 2.5 | ≤ 2.5 | ≤ 2.5 | 1.4 to 1.6 | 1.4 to 1.6 | 1.2 to 1.4 | 1.2 to 1.4 | 1.4 to 1.6 | > 1.6 | ≤ 1.2 | 1.2 to 1.4 | > 4 | > 4 | 2.01 to 3 | > 4 | 2.01 to 3 | > 4 |
| Cn1cnnc1C(F)(F)[C@](C)(F)c1cccc(N2Cc3c(cc(CN4CC[C@@H](C#N)C4)cc3C(F)(F)F)C2=O)c1 [Compound 455, (R)-1-((3-oxo-2-(3-((R)-1,1,2-trifluoro-1-(4-methyl-4H-1,2,4-triazol-3-yl)propan-2-yl)phenyl)-7-(trifluoromethyl)isoindolin-5-yl)methyl)pyrrolidine-3-carbonitrile] | ≤ 2.5 | 2.51 to 4 | > 4.01 | 1.2 to 1.4 | 1.4 to 1.6 | 1.2 to 1.4 | 1.2 to 1.4 | 1.4 to 1.6 | > 1.6 | 1.2 to 1.4 | 1.4 to 1.6 | > 4 | > 4 | 3.01 to 4 | > 4 | > 4 | > 4 |
| Cc1n[nH]c(C)c1-c1cc2c(c(C(F)(F)F)c1)CN(c1cccc(C3(Cc4nncn4C)COC3)c1)C2=O [Compound 385, 6-(3,5-dimethyl-1H-pyrazol-4-yl)-2-(3-{3-[(4-methyl-4H-1,2,4-triazol-3-yl)methyl]oxetan-3-yl}phenyl)-4-(trifluoromethyl)-2,3-dihydro-1H-isoindol-1-one] | ≤ 2.5 | ≤ 2.5 | > 4.01 | 1.2 to 1.4 | 1.4 to 1.6 | 1.2 to 1.4 | 1.2 to 1.4 | 1.4 to 1.6 | > 1.6 | 1.2 to 1.4 | 1.4 to 1.6 | > 4 | > 4 | 2.01 to 3 | 3.01 to 4 | 3.01 to 4 | > 4 |
| Cn1cnnc1CC1(c2cccc(N3Cc4c(cc(CN5CC(F)C5)cc4C(F)(F)F)C3=O)c2)COC1 [Compound 415, 6-((3-fluoroazetidin-1-yl)methyl)-2-(3-(3-((4-methyl-4H-1,2,4-triazol-3-yl)methyl)oxetan-3-yl)phenyl)-4-(trifluoromethyl)isoindolin-1-one] | 2.51 to 4 | 2.51 to 4 | > 4.01 | 1.2 to 1.4 | 1.4 to 1.6 | 1.2 to 1.4 | 1.2 to 1.4 | > 1.6 | > 1.6 | 1.2 to 1.4 | 1.4 to 1.6 | > 4 | > 4 | 3.01 to 4 | > 4 | > 4 | > 4 |
| C[C@H](Cc1nncn1C)c1cccc(N2Cc3c(cccc3C(F)(F)F)C2=O)c1 [Compound 255a, (R)-2-(3-(1-(4-methyl-4H-1,2,4-triazol-3-yl)propan-2-yl)phenyl)-4-(trifluoromethyl)isoindolin-1-one] | ≤ 2.5 | 2.51 to 4 | ≤ 2.5 | ≤ 1.2 | 1.2 to 1.4 | ≤ 1.2 | 1.2 to 1.4 | ≤ 1.2 | ≤ 1.2 | ≤ 1.2 | ≤ 1.2 | < 2 | 3.01 to 4 | < 2 | 2.01 to 3 | < 2 | < 2 |
